Source: patent US6204284A, “Use of 1-(substitutedphenyl)-3-azabicyclo[3.1.0]hexanes for the treatment of chemical dependencies” (priority 1995, dated 2001)
pIC50: −log10 of the molar value. Values joined by “and” are separate entries in the source; they are usually repeats but may differ in a detail not shown here. Equal entries are not always repeated. “Also recorded” adds a separate entry of the source.

Tests used:
[1] = system: Male Wistar rats; experiment: Free-choice ethanol (6% v/v) vs tap water drinking, Part I; type: in vivo, rat; settings: for Ethanol Intake / Ethanol Preference / Food Consumption / Total Fluid Intake: mean ± S.D.
Experimental: Male Wistar rats are presented with an everyday free-choice between a 6% (v/v) ethanol solution and tap water. Following a seven-day baseline period, which establishes a pattern of stable drinking, only those animals whose consumption is greater than 50% of their total fluid intake are given intraperitoneal injections of three drugs. In part I citalopram (positive control) a neuronal serotonin uptake inhibitor at a dose of 30 mg/kg, […], and 1-(3,4-dichlorophenyl)-3-azabicyclo[3.1.0]hexane hydrochloride, also a serotonin uptake inhibitor, at doses of 5, 10 and 20 mg/kg are given by intraperitoneal injection for seven days. In part II, animals are given intraperitoneal injections of diazepam at a dose of 10 mg/kg and again the positive control used is citalopram at 30 mg/kg. Treatment period for part II also is over a seven-day period. Following the seven-day treatment period, a post-treatment period which lasted for an additional seven days is conducted where the animals are presented with a free choice between ethanol and water in order to determine the rate of recovery of ethanol drinking. During baseline, drug treatment and post-treatment periods, ethanol consumption by the rats is calculated in terms of daily ethanol preference ratio (volume of ethanol per volume of total daily fluid intake) and in terms of daily absolute of ethanol ingested (g/kg body weight).
Two hundred (200) drug-naive male Wistar rats obtained from the Canadian Breeding Farm Laboratories in Charles River Canada are used. All animals weigh between 180-200 g at the beginning of the experiment.
All animals are individually housed in stainless steel cages, in a room regulated for constant temperature, humidity and a 12-hour light/dark cycle (7:00 a.m.-7:00 p.m.). Each cage is equipped with two calibrated glass Richter tubes to deliver the fluids (ethanol and water) to the animals. All animals are presented with a free choice between ethanol and tap water throughout the experiment. The drinking vessels are randomly reversed in order to avoid bias generated by a position preference in the animals. In addition, Purina Rat Chow is made available throughout the experiment on an ad libitum basis.
At approximately the same time every day, 1300 h, the volume in mls of ethanol and tap water consumed by each animal is recorded. All tubes are then removed from the cages, rinsed and refilled with the appropriate fluids, i.e., ethanol solution and tap water. Also, all animals are weighed and their corresponding body weights recorded. At this time, additional food is provided.
Drugs used in part I are dissolved in Ringers solution to form the required doses. Drugs used in part II are suspended in a vehicle which consists of a 2% pre-boiled starch solution containing 5% polyethylene glycol 400 and tween 80 (1 drop/10 ml vehicle). All drugs are administered intraperitoneally according to the schedule (see Treatment period).
Group 2--citalopram 30 mg/kg (n=10)
Group 3--1-(3,4-dichlorophenyl)-3-azabicyclo[3.1.0]hexane hydrochloride 5 mg/kg (n=10)
Group 4--1-(3,4-dichlorophenyl)-3-azabicyclo[3.1.0]hexane hydrochloride 10 mg/kg (n=10)
Group 5--1-(3,4-dichlorophenyl)-3-azabicyclo[3.1.0]hexane hydrochloride 20 mg/kg (n=10)
Post-treatment period:--Upon cessation of the drug treatment period, the animals are presented with a free choice between 6% ethanol and tap water for an additional 7 days in order to determine the rate of recovery of ethanol drinking.

[2] = system: Norepinephrine (NE) reuptake in rat brain synaptosomes; experiment: Inhibition of rat synaptosomal uptake of 3H-norepinephrine; type: biochemical; settings: rat diencephalic-mid brain crude synaptosomes; 3H-NE 2×10^-8 M; Hill analysis
Source text: (§1) Male Wistar rats weighing approximately 180-200 g are decapitated and their brains rapidly removed and dissected according to the method of Glowinski and Iversen. Glowinski, J. and Iversen, L. L., Regional studies of catecholamines in the rat brain I. The disposition of 3H-norepinephrine, 3H-dopamine and 3H-DOPA in various regions of the brain. J. Neurochem. 13:655-669, 1966.
(§2) Striatal tissues are pooled from three rat brains for the uptake of 3H-dopamine (3H-DA) and diencephalic-mid brain areas were used for the uptake of 3H-norepinephrine (3H-NE) and 3H-serotonin (3H-5HT). The tissues are immediately weighed and homogenized with a teflon-glass pestle homogenizer in 10 volumes of ice cold 0.32 M sucrose. The homogenates are centrifuged at 4° C. at 900×g for 10 minutes to remove nuclear particles and cellular debris. The supernatants are carefully withdrawn and transferred into clean test tubes kept in ice. Aliquots of these preparations containing crude synaptic nerve endings are used in subsequent uptake studies.
(§3) Amine uptake in crude synaptosomes is determined by a method essentially the same as that described by Snyder and Coyle, Snyder, S. H. and Coyle, J. T. Regional differences in 3H-norepinephrine and 3H-dopamine uptake into rat brain homogenates. J. Pharmacol. Exp. Ther. 165:78-86, 1969. Briefly, a 0.1 ml aliquot of the above tissue preparation is added to test tubes containing 3.7 ml of Krebs-Ringer phosphate buffer pH 7.4 with glucose (2 mg/ml), calcium chloride 0.024%, ascorbic acid (0.2 mg/ml) and nialamide (1.24×10^-5M). 1-(3,4-Dichlorophenyl)-3-azabicyclo[3.1.0]hexane hydrochloride at varying concentrations (0.01-2.5 μM) is added in a 0.1 ml volume. The incubation mixtures are agitated at 37° C. for 10 minutes under an atmosphere of 95% oxygen and 5% CO2 in a Dubnoff metabolic shaker to ensure irreversible inhibition of monoamine oxidase (MAO). After this initial pre-incubation period, the tubes are returned to the ice bath. 3H-DA, 3H-NE or 3H-5HT is added in a 0.1 ml volume to give a final concentration of labeled amine of 2×10^-8 M, and the incubation at 37° C. is continued for an additional 4 min. A set of tubes serving as control (uptake at 0° C.) is left in an ice bath. After the final incubation period, the samples are cooled in ice and then centrifuged at 4° C. at 10,000×g. The supernatant fluid is gently poured off from each tube. The surface of the pellet of each sample is washed with 5 ml of ice cold 0.9% sodium chloride which is then aspirated off without disturbing the pellet. The pellet is resuspended in a cintillation fluid ad radioactivity was determined. Protein content in the tissue samples is determined by the method of Lowry et al. Lowry, O. H., Rosebrough, N. J., Farr, A. L. and Randall, R. J. Protein measurement with the folin reagent. J. Biol. Chem. 193:265, 1951. The concentration of drug which inhibits the uptake of the labeled amine by 50% is determined by Hill analysis of the data.

[3] = system: Serotonin (5-HT) reuptake in rat brain synaptosomes; experiment: Inhibition of rat synaptosomal uptake of 3H-serotonin; type: biochemical; settings: rat diencephalic-mid brain crude synaptosomes; 3H-5HT 2×10^-8 M; Hill analysis
Source text: as §1, §2, §3

[4] = system: Dopamine (DA) reuptake in rat brain synaptosomes; experiment: Inhibition of rat synaptosomal uptake of 3H-dopamine; type: biochemical; settings: rat striatal crude synaptosomes; 3H-DA 2×10^-8 M; Hill analysis
Source text: as §1
Striatal tissues are pooled from three rat brains for the uptake of 3H-dopamine (3H-DA) and diencephalic-mid brain areas were used for the uptake of 3H-norepinephrine (3H-NE) and 3H-serotonin (3H-5HT). The tissues are immediately weighed and homogenized with a teflon-glass pestle homogenizer in 10 volumes of ice cold 0.32 M sucrose. […]
Amine uptake in crude synaptosomes is determined by a method essentially the same as that described by Snyder and Coyle, Snyder, S. H. and Coyle, J. T. Regional differences in 3H-norepinephrine and 3H-dopamine uptake into rat brain homogenates. […] The pellet is resuspended in a cintillation fluid ad radioactivity was determined. Protein content in the tissue samples is determined by the method of Lowry et al. Lowry, O. H., Rosebrough, N. J., Farr, A. L. and Randall, R. J. Protein measurement with the folin reagent. […] The concentration of drug which inhibits the uptake of the labeled amine by 50% is determined by Hill analysis of the data.

[5] = 5 mg/kg i.p. 7 days, Baseline period
[6] = 5 mg/kg i.p. 7 days, Post-Treatment period
[7] = 10 mg/kg i.p. 7 days, Baseline period
[8] = 10 mg/kg i.p. 7 days, Post-Treatment period
[9] = 20 mg/kg i.p. 7 days, Baseline period
[10] = 20 mg/kg i.p. 7 days, Baseline period, hydrochloride, 20 mg/kg
[11] = 20 mg/kg i.p. 7 days, Post-Treatment period
[12] = 20 mg/kg i.p. 7 days, Post-Treatment period, hydrochloride, 20 mg/kg

Structure (SMILES): Cl.Clc1ccc(C23CNCC2C3)cc1Cl (centres unmarked) [1-(3,4-dichlorophenyl)-3-azabicyclo[3.1.0]hexane hydrochloride]
- Ethanol Intake [1, 5]: 5.02 ± 1.16 g/kg body weight
- Ethanol Preference [1, 5]: 83.67 ± 14.58%
- Food Consumption [1, 5]: 19.74 ± 1.65 g/day
- Total Fluid Intake [1, 5]: 5.1937 ± 0.5254 mL/h/kg
- Ethanol Intake [1, 6]: 4.86 ± 1.78 g/kg body weight
- Ethanol Preference [1, 6]: 82.39 ± 20.87%
- Food Consumption [1, 6]: 19.50 ± 1.41 g/day
- Total Fluid Intake [1, 6]: 5.025 ± 0.9108 mL/h/kg
- Ethanol Intake [1, 7]: 4.55 ± 0.90 g/kg body weight
- Ethanol Preference [1, 7]: 75.05 ± 16.53%
- Food Consumption [1, 7]: 20.43 ± 1.55 g/day
- Total Fluid Intake [1, 7]: 5.3292 ± 0.6617 mL/h/kg
- Ethanol Intake [1, 8]: 2.99 ± 1.42 g/kg body weight
- Ethanol Preference [1, 8]: 55.90 ± 28.51%
- Food Consumption [1, 8]: 21.32 ± 1.96 g/day
- Total Fluid Intake [1, 8]: 4.8087 ± 0.6483 mL/h/kg
- Food Consumption [1, 9]: 20.28 ± 1.12 g/day
- Total Fluid Intake [1, 9]: 4.84 ± 0.4304 mL/h/kg
- Ethanol Intake [1, 10]: 3.79 g/kg body weight and 3.80 ± 1.00 g/kg body weight
- Ethanol Preference [1, 10]: 67.94% and 67.94 ± 17.05%
- Food Consumption [1, 11]: 20.88 ± 2.08 g/day
- Total Fluid Intake [1, 11]: 4.4675 ± 0.4983 mL/h/kg
- Ethanol Intake [1, 12]: 3.04 g/kg body weight and 3.04 ± 1.34 g/kg body weight
- Ethanol Preference [1, 12]: 58.66% and 58.66 ± 23.98%
- Ethanol Preference ([1]; 20 mg/kg i.p. 7 days, Treatment period, hydrochloride, 20 mg/kg): 25.55% and 25.55 ± 17.28%
- Voluntary ethanol consumption (overall statement) ([1]; rats, 5, 10 and 20 mg/kg i.p. 7 days, hydrochloride): reduces ethanol intake and ethanol preferences; also recorded: significant effect in attenuating voluntary ethanol consumption
